From paper PMC5642271 (American journal of veterinary research, 2016)
Entries after “also recorded” stand apart in the source; their conditions may differ. Read-outs that look alike come from different tables or passages of the source.

Columns and labels:
[1] = Pharmacokinetics of rapamycin in blood after a single oral dose; type: in vivo, dogs; conditions: experiment 1: 0.1 mg/kg PO once
[2] = Pharmacokinetics of rapamycin in blood after oral dosing once daily for 5 days; type: in vivo, dogs
healthy dogs = assay: Monitoring of adverse effects in healthy dogs during the study; type: in vivo; conditions: 0.1 mg/kg PO once (experiment 1) and once daily for 5 days (experiment 2), vomiting between 3 and 5 hours after administration on day 4 of experiment 2
mTOR pathway = conditions: IM 0.01 to 0.08 mg/kg, peripheral blood mononuclear cells and tumor biopsy specimens, each dose cohort; cited from earlier work
[3] = system: canine osteosarcoma and malignant melanoma cell lines; conditions: immortalized canine cell lines; cited from earlier work
[4] = blood samples stored frozen at −80°C for 90 days and subsequently thawed; cited from earlier work
[5] = system: dogs with experimental renal allografts; conditions: cited from earlier work
dogs with osteosarcoma = conditions: cited from earlier work
[6] = compartmental NME analysis, 5 dogs
[7] = experiment 2, day 5 of 0.1 mg/kg PO once daily, compartmental NME analysis
[8] = experiment 2: 0.1 mg/kg PO once daily for 5 days, compartmental NME analysis, value before the change on day 5, mean for 4 dogs
[9] = experiment 2: 0.1 mg/kg PO once daily for 5 days, whole blood, mean of n = 4, SD

For `CO[C@H]1C[C@@H]2CC[C@@H](C)[C@@](O)(O2)C(=O)C(=O)N2CCCC[C@H]2C(=O)O[C@H]([C@H](C)C[C@@H]2CC[C@@H](O)[C@H](OC)C2)CC(=O)[C@H](C)/C=C(\C)[C@@H](O)[C@@H](OC)C(=O)[C@H](C)C[C@H](C)/C=C/C=C/C=C/1C` [rapamycin, Rapamycin], the “V1/f, volume of the central compartment after oral administration, mean estimate” value [1, 6] was 6.74 L/kg, the “V2/f, volume of the peripheral compartment after oral administration, mean estimate” value [1, 6] was 18.1 L/kg and the “ka, absorption rate constant, mean estimate” value [1, 6] was 0.358 h⁻¹. The “Cmax (mean ± SD)” value ([1]; whole blood, mean of n = 5, SD) was 8.39 ± 1.73 ng/mL, the “Tmax (mean ± SD)” value ([1]; whole blood, mean of n = 5, SD) was 3.3 ± 2.5 h and the “concentration 48 hours after drug administration (mean ± SD)” value ([1]; whole blood, mean of n = 5, SD) was 1.38 ± 0.45 ng/mL. For the same compound, the “t1/2, terminal half-life (mean ± SD)” value ([1]; whole blood, noncompartmental, mean of n = 5, SD) was 38.7 ± 12.7 h, the “mean V1/f on the last day (day 5) of administration” value [2, 7] was 16.8 L/kg and the “mean ka on the last day (day 5) of administration” value [2, 7] was 2.17 h⁻¹. For the same compound, the “V2/f, volume of the peripheral compartment after oral administration, mean estimate” value ([2]; experiment 2: 0.1 mg/kg PO once daily for 5 days, compartmental NME analysis, mean for 4 dogs) was 22.1 L/kg, the “V1/f, volume of the central compartment after oral administration, mean estimate” value [2, 8] was 4.53 L/kg and the “ka, absorption rate constant, mean estimate” value [2, 8] was 0.294 h⁻¹. The “Tmax (mean ± SD)” value ([2]; experiment 2: 0.1 mg/kg PO once daily for 5 days, mean of n = 4, SD) was 4.5 ± 1.0 h, the “Cmax (mean ± SD)” value [2, 9] was 5.49 ± 1.99 ng/mL and the “concentration 48 hours after drug administration (mean ± SD)” value [2, 9] was 1.70 ± 0.40 ng/mL. For the same compound, the “Parameter characterizing the change in ka on the last day (day 5) of rapamycin administration in experiment 2” value ([2]; βOCC2 of the NME model, θμD5 = θμD1−4e^βOCC2, P = 0.002) was 2.0, the “Parameter characterizing the change in V1/f on the last day (day 5) of rapamycin administration in experiment 2” value ([2]; βOCC2 of the NME model, P = 0.002) was 1.31 and the adverse effects observed (healthy dogs) was “None of the dogs had a substantial change in energy level, appetite, water intake, urination, or defecation; also recorded: One dog vomited once; also recorded: No other adverse effects were observed”. For the same compound, the “modulation of the mTOR pathway” value (mTOR pathway) was “modulation of the mTOR pathway was detected”, the “viable tumor cells after exposure to rapamycin” value [3] was “significant, dose-dependent decrease in viable tumor cells” and the “rapamycin concentration in stored blood samples (stability)” value [4] was “not substantially affected”. The “prevention of renal allograft rejection” value ([5]; 0.05 mg/kg, IV) was “did not provide sufficient immunosuppression to prevent rejection of the renal allograft”, the “prevention of renal allograft rejection” value ([5]; 0.1 mg/kg, IM q 48 h or twice weekly, in combination with cyclosporine and antilymphocyte serum) was “not sufficient to prevent renal allograft rejection” and the maximally tolerated dose (dogs with osteosarcoma; IM injection, doses ranging from 0.01 to 0.08 mg/kg) was “a maximally tolerated dose was not achieved”. For the same compound, the injection site reaction (dogs with osteosarcoma; dog, in vivo) was “sterile abscesses at the injection site”.
